# Results taken from patent EP1984353B1, “AURORA KINASE MODULATORS AND METHOD OF USE” (Amgen, Inc, priority 2006, dated 2007).
# Like-named read-outs stand apart in the source and are kept apart here.
# How the values were obtained:
# [1] = tested on: phosphorylation of Histone H3; test: HeLa cell 1-hour phospho-histone assay; type: cell-based; details: HeLa cells
# Experimental: HeLa cell 1-hour phospho-histone assay
# The purpose of this assay is to test the inhibitory effect of Aurora compounds with respect to phosphorylation of Histone H3 in the cellular context. HeLa cells (9x10^4/well) are plated in black 96-well flat-bottom tissue culture plates and incubated for 40 hours prior to compound addition. Compounds are serially diluted in DMSO, followed by dilution into MEM containing […] HEPES; 10ul/well of diluted compounds are added to cells (0.5% DMSO final). Cells are incubated for 1 hour at 37 °C in 5% CO2. Cells are then fixed with 3.7% formaldehyde for 10 minutes, washed with wash buffer (1% goat serum and 0.1% Tween 20 in PBS), then permeabilized with 0.5% Triton X in PBS for 15 minutes. After washing with wash buffer, cells are incubated with primary antibody (Upstate #06-507 anti-phospho-histone (Ser 10) antibody (pHH3) for 1 hour at 10ug/ml. After 2 washes with wash buffer, cells are incubated with secondary antibody (Molecular Probes #A11034 goat anti-rabbit Alexa-488 for 1 hour at 1ug/ml + Hoechst 33342 nuclear dye at 1ug/ml (Molecular Probes). Cells are washed 2 times with wash buffer, and buffer replaced with PBS. Plates are scanned on the Cellomics Array Scan (6 fields, ~2000 cells/well) and % of cells that are pHH3 positive were calculated using the Cellomics algorithm.
# AuroraA-TPX2 = molecular target: T1, AuroraA-TPX2 (Homo sapiens, UniProt O14965); test: AuroraA-TPX2 Homogeneous Time Resolved Fluorescent (HTRF) kinase assay; type: biochemical
# T1 construct: 20 µL of AuroraA-TPX2 KD GST; GST
# T1 sequence (O14965 133-383 limits assumed): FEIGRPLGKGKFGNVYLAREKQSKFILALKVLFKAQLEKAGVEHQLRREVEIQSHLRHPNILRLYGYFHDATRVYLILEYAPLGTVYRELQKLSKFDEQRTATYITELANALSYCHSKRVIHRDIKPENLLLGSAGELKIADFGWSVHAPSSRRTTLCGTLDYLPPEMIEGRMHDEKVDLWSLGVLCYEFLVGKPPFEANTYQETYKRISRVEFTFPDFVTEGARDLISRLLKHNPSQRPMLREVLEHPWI
# T1 sequence (Q9ULW0 1-43 partner limits assumed): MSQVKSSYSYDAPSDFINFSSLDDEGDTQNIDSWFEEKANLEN
# How it was run: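 HTRF read-out: europium anti-phosphoPLK antibody (0.02 nM) plus streptavidin-APC detect phosphorylated biotin-PLK after EDTA stop and overnight equilibration. Kinase step runs about 120 min with Aurora-A/TPX2, ATP and roughly 1 µM PLK peptide at pH 7.5 HEPES buffer with Mg2+ and DTT.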
# AuroraB = molecular target: T2, AuroraB (Homo sapiens, UniProt Q96GD4); test: AuroraB Homogeneous Time Resolved Fluorescent (HTRF) kinase assay; type: biochemical
# T2 construct: 20 µL of AuroraB FL His; His
# T2 sequence (Q96GD4 whole entry): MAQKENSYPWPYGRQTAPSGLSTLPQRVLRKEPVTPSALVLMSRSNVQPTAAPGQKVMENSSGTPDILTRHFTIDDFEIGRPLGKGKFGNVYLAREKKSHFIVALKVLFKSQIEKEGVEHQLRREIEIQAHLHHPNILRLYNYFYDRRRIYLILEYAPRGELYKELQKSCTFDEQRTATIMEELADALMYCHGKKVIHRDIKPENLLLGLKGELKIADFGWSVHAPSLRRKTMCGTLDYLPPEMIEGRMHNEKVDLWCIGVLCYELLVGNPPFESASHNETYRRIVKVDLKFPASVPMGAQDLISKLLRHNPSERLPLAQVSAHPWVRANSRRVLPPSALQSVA
# How it was run: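 HTRF read-out: after EDTA stop and ~60 min with europium anti-phospho-H3 antibody and streptavidin-APC, 655/615 nm ratio reports phosphorylation. Reaction: 400 pM AuroraB FL His, 23 µM ATP (at Km(app)), 0.1 µM biotin-Histone H3 peptide, 50 mM HEPES pH 7.5, MgCl/MnCl, ~90 min.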
# [2] = Homo sapiens, HeLa, 1 h, 1 hour, average, given as class symbols, read-out: pHH3 EC50_IP (Avg)
# [3] = Homo sapiens, HeLa, 1 h, 1 hour incubation, % of cells pHH3 positive, read-out: inhibitory activity (EC50) in the phospho-histone H3 assay
# [4] = Homo sapiens, HeLa, 1 h, 1 hour, average, given as numbers, unit inferred, read-out: pHH3 EC50_IP (Avg)
# [5] = average, given as class symbols, read-out: AurA/TP X2_ IC50_IP (Avg)
# [6] = average, given as class symbols, read-out: AurB_ _IC50_IP (Avg)
smiles,measurement,setting,value
"O=C(O)CCCNc1nccc(-c2cccnc2Oc2ccc(Nc3nnc(-c4ccccc4)c4ccccc34)cc2)n1 [compound 427, 4-((4-(2-((4-((4-phenyl-1-phthalazinyl)amino)phenyl)oxy)-3-pyridinyl)-2-pyrimidinyl)amino)butanoic acid]",EC50,[1]; [2],500 to 2500 nM
"Nc1nccc(-c2cccnc2Oc2ccc(Nc3nnc(-c4ccsc4)c4ccccc34)cc2)n1 [Example 90, N-(4-((3-(2-amino-4-pyrimidinyl)-2-pyridinyl)oxy)phenyl)-4-(3-thienyl)-1-phthalazinamine]",EC50,[1]; [3],< 1000 nM
"Cc1csc(-c2cc(C)c(Nc3ccc(Oc4ncccc4-c4ccnc(N)c4)cc3)nn2)c1 [compound 419, 2-((4-((4-methyl-6-(4-methyl-2-thienyl)-3-pyridazinyl)amino)phenyl)oxy)-3,4'-bipyridin-2'-amine]",EC50,[1]; [2],100 to 500 nM
"CNc1nccc(-c2cccnc2Oc2ccc(Nc3nnc(-c4ccccc4)c4c3CCC4)cn2)n1 [Example 108, N-(6-((3-(2-(methylamino)-4-pyrimidinyl)-2-pyridinyl)oxy)-3-pyridinyl)-4-phenyl-6,7-dihydro-5H-cyclopenta[d]pyridazin-1-amine]",EC50,[1]; [3],< 1000 nM
"O=c1cc(-c2cccnc2Oc2ccc(Nc3nnc(-c4ccccc4)c4ccccc34)cc2)cc[nH]1 [compound 432, 2-((4-((4-phenyl-1-phthalazinyl)amino)phenyl)oxy)-3,4'-bipyridin-2'(1'H)-one]",EC50,[1]; [2],500 to 2500 nM
"Cc1cc(-c2ccccc2)nnc1Nc1ccc(Oc2ncccc2-c2ccnc(N)n2)cc1 [Example 119, N-(4-((3-(2-amino-4-pyrimidinyl)-2-pyridinyl)oxy)phenyl)-4-methyl-6-phenyl-3-pyridazinamine]",EC50,[1]; [3],< 1000 nM
"Cc1csc(-c2cc(C)c(Nc3ccc(Oc4ncccc4-c4ccnc(N)c4)cc3)nn2)n1 [compound 434, 2-((4-((4-methyl-6-(4-methyl-1,3-thiazol-2-yl)-3-pyridazinyl)amino)phenyl)oxy)-3,4'-bipyridin-2'-amine]",EC50,[1]; [4],1000 nM
"CNc1nccc(-c2cccnc2Oc2ccc(Nc3nnc(-c4ccccc4)c4c3C3CCC4CC3)cc2)n1 [Example 107, N-(4-((3-(2-(methylamino)-4-pyrimidinyl)-2-pyridinyl)oxy)phenyl)-6-phenyl-4,5-diazatricyclo [6.2.2.0-2,7-]dodeca-2,4,6-trien-3-amine]",EC50,"[1]; 1 hour incubation, % of cells pHH3 positive, read-out: inhibitory activity (EC50) in the phospho-histone H3 assay",< 1000 nM
"CNc1nccc(-c2cccnc2Oc2ccc(Nc3nnc(-c4ccccc4)c4c3CCCC4)cn2)n1 [Example 105, N-(6-((3-(2-(methylamino)-4-pyrimidinyl)-2-pyridinyl)oxy)-3-pyridinyl)-4-phenyl-5,6,7,8-tetrahydro-1-phthalazinamine]",EC50,[1]; [3],< 1000 nM
"CNc1nccc(-c2cccnc2Oc2ccc(Nc3nnc(-c4ccsc4)c4ccccc34)cn2)n1 [Example 92, N-(6-((3-(2-(methylamino)-4-pyrimidinyl)-2-pyridinyl)oxy)-3-pyridinyl)-4-(3-thienyl)-1-phthalazinamine]",EC50,[1]; [3],< 1000 nM
"Cc1csc(-c2nnc(Nc3ccc(Oc4ncccc4-c4ccnc(N)c4)cc3)c3ccccc23)c1 [compound 416, 2-((4-((4-(4-methyl-2-thienyl)-1-phthalazinyl)amino)phenyl)oxy)-3,4'-bipyridin-2'-amine]",EC50,[1]; [4],134 nM
"Cc1cc(-c2ccccc2)nnc1Nc1ccc(Oc2ncccc2-c2ccnc(NCCCC(=O)O)n2)cc1 [compound 430, 4-((4-(2-((4-((4-methyl-6-phenyl-3-pyridazinyl)amino)phenyl)oxy)-3-pyridinyl)-2-pyrimidinyl)amino)butanoic acid]",EC50,[1]; [2],500 to 2500 nM
"Nc1cc(-c2cccnc2Oc2ccc(Nc3nnc(-c4ccccc4)c4ccccc34)cn2)ccn1 [compound 431, 2-((5-((4-phenyl-l-phthalazinyl)amino)-2-pyridinyl)oxy)-3,4'-bipyridin-2'-amine]",EC50,[1]; [2],≤ 100 nM
"Nc1nccc(-c2cccnc2Oc2ccc(Nc3nnc(-c4ccccc4)c4ccccc34)cn2)n1 [compound 415, N-(6-((3-(2-amino-4-pyrimidinyl)-2-pyridinyl)oxy)-3-pyridinyl)-4-phenyl-1-phthalazinamine]",EC50,[1]; [2],≤ 100 nM
"Cc1cc(-c2ccccc2)nnc1Nc1ccc(Oc2ncccc2-c2ccnc(NCCCO)n2)cc1 [compound 429, 3-((4-(2-((4-((4-methyl-6-phenyl-3-pyridazinyl)amino)phenyl)oxy)-3-pyridinyl)-2-pyrimidinyl)amino)-1-propanol]",EC50,[1]; [2],100 to 500 nM
"Cc1cc(-c2ccccc2)nnc1Nc1ccc(Oc2ncccc2-c2ccnc(N)c2)cc1 [compound 418, 2-((4-((4-methyl-6-phenyl-3-pyridazinyl)amino)phenyl)oxy)-3,4'-bipyridin-2'-amine]",EC50,[1]; [2],100 to 500 nM
"CCc1cc(-c2ccccc2)nnc1Nc1ccc(Oc2ncccc2-c2ccnc(N)c2)cc1 [compound 420, 2-((4-((4-ethyl-6-phenyl-3-pyridazinyl)amino)phenyl)oxy)-3,4'-bipyridin-2'-amine]",EC50,[1]; [4],314 nM
"Cc1csc(-c2cc(C)c(Nc3ccc(Oc4ncccc4-c4ccncc4)cc3)nn2)c1 [compound 428, N-(4-(3,4'-bipyridin-2-yloxy)phenyl)-4-methyl-6-(4-methyl-2-thienyl)-3-pyridazinamine]",EC50,[1]; [2],500 to 2500 nM
"Nc1nccc(-c2cccnc2Oc2ccc(Nc3nnc(N4CCN5CCCC5C4)c4ccccc34)cc2)n1 (stereo not shown) [compound 394, N-(4-((3-(2-amino-4-pyrimidinyl)-2-pyridinyl)oxy)phenyl)-4-(hexahydropyrrolo[1,2-a]pyrazin-2(1H)-yl)-1-phthalazinamine]",IC50,AuroraA-TPX2; [5],≤ 100 nM
same,IC50,AuroraB; [6],≤ 100 nM
"COc1cccc(-c2nnc(Nc3ccc(Oc4ncccc4-c4ccnc(N)n4)nc3)c3ccccc23)n1 [compound 293, N-(6-((3-(2-amino-4-pyrimidinyl)-2-pyridinyl)oxy)-3-pyridinyl)-4-(6-(methyloxy)-2-pyridinyl)-1-phthalazinamine]",IC50,AuroraA-TPX2; [5],≤ 100 nM
same,IC50,AuroraB; [6],≤ 100 nM
"c1ccc(-c2nnc(Nc3ccc(Oc4ccccc4-c4ccncc4)cc3)c3ccccc23)cc1 [compound 252, 4-phenyl-N-(4-((2-(4-pyridinyl)phenyl)oxy)phenyl)-1-phthalazinamine]",IC50,"AuroraA-TPX2; average, given as numbers, unit inferred, read-out: AurA/TP X2_ IC50_IP (Avg)",166 nM
same,IC50,"AuroraB; average, given as numbers, unit inferred, read-out: AurB_ _IC50_IP (Avg)",660 nM
"Nc1ncc(F)c(-c2cccnc2Oc2ccc(Nc3nnc(-c4ccccc4)c4ccccc34)cc2)n1 [Example 469, N-(4-(3-(2-Amino-5-fluoropyrimidin-4-yl)pyridin-2-yloxy)phenyl)-4-phenylphthalazin-1-amine]",IC50,AuroraA-TPX2; read-out: average activity in the Aurora kinase A HTRF assay,≤ 100 nM
same,IC50,AuroraB; read-out: average activity in the Aurora kinase B HTRF assay,≤ 100 nM
"CNc1cc(-c2cccnc2Oc2ccc(Nc3nnc(-c4ccccc4)c4c3CCC4)cn2)ccn1 [Example 120, N-methyl-2-((5-((4-phenyl-6,7-dihydro-5H-cyclopenta[d]pyridazin-1-yl)amino)-2-pyridinyl)oxy)-3,4'-bipyridin-2'-amine]",EC50,[1]; [3],< 1000 nM
"Nc1nccc(-c2cccnc2Oc2ccc(Nc3nnc(-c4cccc(CO)n4)c4ccccc34)cc2)n1 [compound 297, (6-(4-((4-((3-(2-amino-4-pyrimidinyl)-2-pyridinyl)oxy)phenyl)amino)-1-phthalazinyl)-2-pyridinyl)methanol]",IC50,AuroraA-TPX2; [5],≤ 100 nM
same,IC50,AuroraB; [6],≤ 100 nM
"CCc1cc(-c2ccccc2)nnc1Nc1ccc(Oc2ncccc2-c2ccnc(NCCCN3CCNCC3)n2)nc1 [compound 451, 4-ethyl-6-phenyl-N-(6-((3-(2-((3-(1-piperazinyl)propyl)amino)-4-pyrimidinyl)-2-pyridinyl)oxy)-3-pyridinyl)-3-pyridazinamine]",IC50,AuroraA-TPX2; [5],100 to 500 nM
same,IC50,AuroraB; [6],≤ 100 nM
